The target in the test is T1, human LPA1 (Homo sapiens, UniProt Q92633).
T1 construct: expressed in transfected cells; host or cells: Chinese hamster ovary (CHO) cells
T1 sequence (Q92633 whole entry): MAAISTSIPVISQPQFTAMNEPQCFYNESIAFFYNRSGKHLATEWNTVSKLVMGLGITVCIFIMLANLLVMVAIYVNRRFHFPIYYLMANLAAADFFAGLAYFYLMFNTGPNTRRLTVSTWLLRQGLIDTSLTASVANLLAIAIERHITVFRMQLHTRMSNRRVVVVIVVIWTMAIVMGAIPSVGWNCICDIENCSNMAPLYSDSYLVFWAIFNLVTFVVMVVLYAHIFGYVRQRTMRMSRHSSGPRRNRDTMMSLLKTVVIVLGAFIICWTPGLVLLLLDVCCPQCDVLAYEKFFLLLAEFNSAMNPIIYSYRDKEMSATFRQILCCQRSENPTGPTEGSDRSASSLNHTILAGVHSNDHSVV
The test can be described thus: LPA1 functional antagonist assay (calcium flux). As to conditions: CHO cells overexpressing human LPA1; inhibition of calcium flux induced by 10 nM LPA; read-out: hLPA1 IC50. Type of test: cell-based. An outline of the steps: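 IC50 values come from 4-parameter logistic fits and mark 50% block of the calcium flux evoked by 10 nM LPA. Human LPA1-overexpressing CHO cells were calcium-dye loaded at 37 °C, then given test compound (0.08 nM–5 μM, 0.5% DMSO, HEPES-buffered HBSS with 0.1% fatty-acid-free BSA) for 20 min at room temperature before agonist.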
On the technique in general: Calcium flux is commonly read through the fluorescence of an indicator in the cells.
`CCc1nccc(OCc2c(-c3ccc(O[C@H]4CCC[C@H](C(=O)O)C4)c(C)n3)nnn2C)n1` [Example 306]: the IC50 (commonly the point on the concentration scale where inhibition reaches its midpoint) was found to be 36 nM.
`COc1cncc(OCc2c(-c3ccc(O[C@H]4CCC[C@H](C(=O)O)C4)c(C)n3)nnn2C)n1` [Example 307]: the IC50 amounted to 2990 nM.
Regarding `Cc1nc(-c2nnn(C)c2COc2ccnc(C(F)F)c2)ccc1O[C@H]1CCC[C@H](C(=O)O)C1` [Example 308], the IC50 was 60 nM.
For `COc1cncc(OCc2c(-c3ccc(O[C@H]4CCC[C@H](C(=O)O)C4)c(C)n3)nnn2C)c1` [Example 309], the IC50 amounted to 3240 nM.
Consider `Cc1nc(-c2nnn(C)c2COc2nccc(C(F)F)n2)ccc1O[C@H]1CCC[C@H](C(=O)O)C1` [Example 310], for which the IC50 came out at 17 nM.
Next, `CCc1ncnc(OCc2c(-c3ccc(O[C@H]4CCC[C@H](C(=O)O)C4)c(C)n3)nnn2C)n1` [Example 311]: 44 nM; `Cc1nc(-c2nnn(C)c2CNc2cc(C(F)(F)F)ncn2)ccc1O[C@H]1CCC[C@H](C(=O)O)C1` [Example 312]: 139 nM.
To `Cc1nc(-c2nnn(C)c2COc2cc(-c3ccc(F)cc3)ncn2)ccc1O[C@H]1CCC[C@H](C(=O)O)C1` [Example 313] belongs 41 nM.
Next, `Cc1nc(-c2nnn(C)c2COc2cc(-n3cnnc3C)ncn2)ccc1O[C@H]1CCC[C@H](C(=O)O)C1` [Example 314]: 416 nM; `Cc1nc(-c2nnn(C)c2COc2cc(C(F)F)ccn2)ccc1O[C@H]1CCC[C@H](C(=O)O)C1` [Example 315]: 22 nM; `Cc1nc(-c2nnn(C)c2COc2nccc(-c3cnccn3)n2)ccc1O[C@H]1CCC[C@H](C(=O)O)C1` [Example 316]: 263 nM.
`Cc1nc(-c2nnn(C)c2COc2nccc(-c3ccccn3)n2)ccc1O[C@H]1CCC[C@H](C(=O)O)C1` [Example 317]: the IC50 came out at 72 nM.
With `CCc1cc(NCc2c(-c3ccc(O[C@H]4CCC[C@H](C(=O)O)C4)c(C)n3)nnn2C)ncn1` [Example 318], the IC50 amounted to 159 nM.
Next, `Cc1nc(-c2nnn(C)c2CNc2nccc(COC(C)C)n2)ccc1O[C@H]1CCC[C@H](C(=O)O)C1` [Example 319]: 57 nM.
Next, `Cc1nc(-c2nnn(C)c2COc2nccc(COC(C)C)n2)ccc1O[C@H]1CCC[C@H](C(=O)O)C1` [Example 320]: 90 nM; `Cc1nc(-c2nnn(C)c2COc2nccc(COC3CC3)n2)ccc1O[C@H]1CCC[C@H](C(=O)O)C1` [Example 321]: 37 nM; `Cc1nc(-c2nnn(C)c2CNc2nccc(COC3CC3)n2)ccc1O[C@H]1CCC[C@H](C(=O)O)C1` [Example 322]: 44 nM.
Next, `Cc1nc(-c2nnn(C)c2COc2cc(COC3CC3)ccn2)ccc1O[C@H]1CCC[C@H](C(=O)O)C1` [Example 323]: 71 nM.
For `CCCOCc1ccnc(NCc2c(-c3ccc(O[C@H]4CCC[C@H](C(=O)O)C4)c(C)n3)nnn2C)n1` [Example 324], the IC50 was 42 nM.
`COCc1ccnc(OCc2c(-c3ccc(O[C@H]4CCC[C@H](C(=O)O)C4)c(C)n3)nnn2C)c1` [Example 325]: the IC50 amounted to 25 nM.
On to `Cc1nc(-c2nnn(C)c2CNc2nccc(-n3cccn3)n2)ccc1O[C@H]1CCC[C@H](C(=O)O)C1` [Example 326], for which the IC50 was 99 nM.
To `Cc1nc(-c2nnn(C)c2COc2nccc(-n3cccn3)n2)ccc1O[C@H]1CCC[C@H](C(=O)O)C1` [Example 327] belongs 335 nM; to `Cc1nc(-c2nnn(C)c2CN(C)c2ncnc(C(C)C)n2)ccc1O[C@H]1CCC[C@H](C(=O)O)C1` [Example 328, (1S,3S)-3-((6-(5-(((4-Isopropyl-1,3,5-triazin-2-yl)(methyl)amino)methyl)-1-methyl-1H-1,2,3-triazol-4-yl)-2-methylpyridin-3-yl)oxy)cyclohexane-1l-carboxylic acid], 211 nM.

These data come from patent US11267800B2, “Cyclohexyl acid triazole azines as LPA antagonists” (BRISTOL-MYERS SQUIBB COMPANY, priority 2017, dated 2022).
